Source: patent US5714488A, “Bis-heteroarylylmethoxyphenyl ketone derivatives as inhibitors of leukotriene biosynthesis” (Abbott Laboratories, priority 1996, dated 1998)
Structures can show the parent of a compound that is named as a salt.

system: leukotriene biosynthesis; experiment: In vivo leukotriene inhibition, Ionophore A23187-Induced Rat Pleural Inflammation Model; conditions: 3.O mg/kg; male rats; dosed in 0.2% methocel one hour prior to intrapleural A23187 (20 μg); lavage after thirty minutes
Procedure: Inhibition of leukotriene biosynthesis in vivo was evaluated using the Ionophore A23187-Induced Rat Pleural Inflammation Model. Pleural inflammation was induced in male rats following the method of Rao, et al. (Rao, T. S., Currie, J. L., Shaffer, A. F., Isakson, P. C., Evaluation of 5-lipoxygenase Inhibitors, Zileuton, A-78773 and ICI D-2138 in an Ionophore (A-23187) Induced Pleural Inflammation Model in the Rat, Life Sciences, 53, 147 (1993)). Rats were dosed with experimental compounds in 0.2% methocel one hour prior to the intrapleural injection of the calcium ionophore, A23187. The rats where lightly anesthetized with Pentrane (Abbott Laboratories) and injected intrapleurally with 0.5 ml of 2% ethanol in injectable saline (Abbott Laboratories) containing 20 μg of A23187 (Cal BioChem-Novabiochem). Thirty minutes later the animals were euthanised and the pleural cavities lavaged with ice cold saline (Abbott Laboratories). The lavage fluid was then added to ice cold methanol (final methanol concentration 30%) to lyse cells and precipitate protein. Eicosanoids were determined by enzyme immunoassay by standard methods.

Row | Compound | % Inhibition (In Vivo Leukotriene Inhibition in Rat Pleural Inflammation)
1 | O=C(O)CON=CC=C(c1ccc(OCc2ccc3ccccc3n2)cc1)c1ccc(OCc2ccc3ccccc3n2)cc1 [Example 12] | 60%

system: 5-Lipoxygenase; experiment: Inhibition of calcium ionophore-induced LTB4 formation in human polymorphonuclear leukocytes (PMNL); type: cell-based; conditions: 15 min preincubation, calcium ionophore 8.3 μM, 10 min at 37° C., LTB4 by enzyme-linked immunoassay or HPLC, read-out: IC50 (In Vitro Inhibitory Potencies Against 5-Lipoxygenase From Stimulated LTB4 Formation in Human Polymorphonuclear Leukocytes)
Procedure: Inhibition of leukotriene biosynthesis was evaluated in vitro using an assay involving calcium ionophore-induced LTB4 expressed in human polymorphornuclear leukocytes (PMNL). Human PMNL isolated from heparinized (20 USP units/mL) venous blood (25 mL) obtained from healthy volunteers was layered over an equal volume of Ficoll-Hypaque Mono-Poly Resolving Medium (ICN Flow, Costa Mesa, CA) and centrifugated at 400×g for 40 minutes at 20° C. The PMNL was collected, erythrocytes lysed and washed 2× and suspended at 1.0×10^7 cells/mL in Earle's balanced salt solution with 17 mM Earle's HEPES. Aliquots of the cell suspension were preincubated with test compounds dissolved in DMSO (final concentration <2%) for 15 minutes and stimulated with calcium ionophore (final concentration 8.3 μM) for 10 min. at 37° C. Incubations were stopped with the addition of two volumes of ice-cold methanol followed by centrifuging the cell suspensions at 4° C. for 10 minutes at 450×g. The amount of LTB4 in the methanol extract was analyzed by enzyme-linked immunoassay or by HPLC analysis.

Row | Compound | IC50
2 | ON=C(c1ccc(OCc2ccc3ccccc3n2)cc1)c1ccc(OCc2ccc3ccccc3n2)cc1 [Example 2, bis(4-(2-quinolylmethoxy)phenyl) ketoxime] | 0.04 µM
3 | O=C(O)CON=C(c1ccc(OCc2ccc3ccc(Cl)cc3n2)cc1)c1ccc(OCc2ccc3ccc(Cl)cc3n2)cc1 [Example 6, bis(4-(7-chloro-2-quinolylmethoxy)phenyl)methyloximinoaceticacid] | 0.22 µM
4 | O=C(O)CON=C(c1ccc(OCc2ccc3ccccc3n2)cc1)c1ccc(OCc2ccc3ccccc3n2)cc1 [Example 1, bis(4-(2-quinolylmethoxy)phenyl)methyloximinoacetic acid] | 0.032 µM
5 | O=C(O)CON=C(c1ccc(OCc2nc3ccccc3s2)cc1)c1ccc(OCc2nc3ccccc3s2)cc1 [Example 9, bis(4-(2-benzothiazoylmethoxy)-phenyl)methyloximinoacetic acid sodium salt] | 0.04 µM

Now from value to compound:

Row | IC50 | Compound
6 | 0.026 µM | O=C(O)CON=CC=C(c1ccc(OCc2ccc3ccccc3n2)cc1)c1ccc(OCc2ccc3ccccc3n2)cc1 [Example 12]
7 | 0.05 µM | O=C(O)C=C(c1ccc(OCc2ccc3ccccc3n2)cc1)c1ccc(OCc2ccc3ccccc3n2)cc1 [Example 11]
